# Measured values as given in US20230137849A1, “USE OF A COMPOUND OF THE DIURETICS CLASS FOR TREATING CANCER” (AZELEAD, priority 2017, published 2023).
# Read-outs that look alike come from different tables or passages of the source.
# Columns and labels:
# [1] = tested on: zebrafish embryo; conditions: in vivo
# Experimental: The toxicity study is carried out over 72 hours. The embryos are treated at 25 hpf with the doses used for the test of chemical compounds of each of the compounds, in a 96-well plate, in a final volume of 100 μl of the embryonic growth medium. The embryos are incubated 72 h at 28° C. The medium is changed every 24 hours. The survival rate of embryos and the appearance of developmental defects are analyzed daily.
# At the same time, we analyzed the toxicity of althiazide after balancing with a solution containing althiazide at concentrations of 1 μM, 10 μM, 100 μM, 1000 μM for 24, 48 and 72 hours. The toxicity study was based on analysis of the percentage viability of the embryos after treatment. At concentrations of 1 μM, 10 μM and 100 μM, althiazide causes no toxicity even after 72 hours of treatment. A 50% toxicity is observed after treatment for 24 hours, the althiazide at the concentration of 1 mM.
# [2] = tested on: 4T1 cells; assay type: cell-based, mouse; conditions: FIG. 8
# Experimental: The cytotoxicity tests are carried out in cell culture in 96-well plates, on the 4T1 cell line. The cells are maintained in a DMEM culture medium supplemented with 10% fetal calf serum (control condition) or placed in the presence of an MTT solution (3-(4,5-dimethylthiazol-2-yl)-2,5-diphenyl tetrazolium bromide) at 1 mg/ml in DMEM medium supplemented with 10% fetal calf serum (100 μl per well). The cells are incubated at 37° C. and 5% CO2 for 4 hours. The reaction is stopped by the addition of 100 μl of a solution containing 10% of SDS and 0.01 M of HCl. The cells are placed in an incubator at 37° C. and 5% CO2 for 2 hours. The absorbance is measured between 570 and 590 nm. The negative control is performed on a well without cells, containing 200 μl of a 1 mg/ml solution of MTT diluted in DMEM culture medium supplemented with 10% fetal calf serum. The average of the measurements obtained is compared with the control wells: (average value of the compounds treated/average value of the controls)*100=% of the average value.
# The 4T1 cells are derived from tumors of the mammary gland in mice.
# In order to study the cytotoxic effects of althiazide in vitro, we analyze the cell death induced by treatment with althiazide by tetrazolium salt labeling MTT (3-(4,5-dimethylthiazol-2-yl)-2,5-diphenyltetrazolium bromide) on 4T1 cells. The amount of living cells in the well is assayed by spectrometry. The results are compared with those obtained after treatment with the control solution (FIG. 8). In this test, we observe a very low mortality of cells after treatment with althiazide (80% of living cells at the highest dose 100 μM). Cells treated with dasatinib have a much higher mortality rate, at much lower doses (80% live cells at the lowest 10 nM dose and 20% live cells at 100 μM).
structure (smiles),measurement,setting,value
Cc1nc(Nc2ncc(C(=O)Nc3c(C)cccc3Cl)s2)cc(N2CCN(CCO)CC2)n1 [dasatinib],toxicity on the embryo in comparison with althiazide doses,[1],very high toxicity
same,living cells (MTT),[2]; highest dose 100 μM,20%
same,living cells (MTT),[2]; lowest dose 10 nM,80%
